Reference: patent US20250270216A1, “ANTI-INFECTIVE AGENTS” (UNIVERSITY OF DUNDEE, priority 2022, published 2025)

Key:
[1] = target: Cryptosporidium parvum lysyl t-RNA synthetase (Cp KRS) (Cryptosporidium parvum, UniProt Q5CR27); assay: In vitro inhibition of Cryptosporidium lysyl tRNA synthetase (KRS), Biomol green phosphate detection; type: biochemical; settings: 300 nM CpKRS, 500 μM ATP, 1.2 mM L-Lysine, 8 h room temperature; read-out: C. parvum KRS pIC50 (converted)
Text: The protein expression and purification method for recombinant CpKRS was described in Baragana et aL, PNAS, 2019, 116 (4), 7015-7020 and will be summarised below.
The C. parvum KRS had 45 residues removed at the N-terminus. All amplicons were cloned into the pAVA0421 expression vector using the ligation independent cloning (LIC) method. Recombinant plasmids were transformed into Rosetta BL21(DE3) competent cells and plated on LB agar plates with ampicillin, carbenicillin, and chloramphenicol selection. Clones were expressed using previously reported autoinduction methods and scaled to 2-litre cultures in a shake flasks. Cell pellets were harvested and lysed with 100 mM HEPES/150 mM NaCl/5% Glycerol/20 mM imidazole/0.5 mM TCEP pH 7.5/DNase/Complete inhibitor tablets) using a Cell Disrupter (Constant Systems) at 30 KPSI and centrifuged at 40,000 g for 20 min remove cell debris. The supernatant was loaded onto a 5 ml HiTrap Ni HP column that had been equilibrated with Buffer A (100 mM HEPES/150 mM NaCl/5% Glycerol/20 mM imidazole/0.5 mM TCEP pH 7.5) at 5 ml/min using an AKTA Pure system. Once loaded the column was washed with 10 column volumes of buffer A. A 5% step of Buffer B (100 mM HEPES/150 mM NaCl/5% Glycerol/500 mM imidazole/0.5 mM TCEP pH 7.5) was then used to wash off His-rich contaminating proteins. A linear gradient of 5-50% B was used to elute the protein. Approximately 287 mg of protein was present in the fractions containing the CpKRS protein. The sample was then concentrated to approximately 30 ml, passed through a 0.2 μm filter, before loading onto a XK26/60 Superdex 200 column using an AKTA Pure system at 4° C. at 2 ml/min 10 ml at a time. The eluted protein was pooled then frozen at −80° C. The concentration of the protein was 1.3 mg/ml. Sometimes the protein was cleaved with PreScission protease overnight, a second Ni column performed in flow through mode to removed uncleaved protein. GST beads were then added to remove the PreScission Protease. The protein was then gel filtered as descripted above.
Assay Method for Measurement of In Vitro Inhibition of Cryptosporidium lysyl tRNA Synthetase (KRS)
Potency of compounds was determined in 10 points dose-response inhibition curves. Compounds were transferred into 384-well clear bottom plates (Greiner Bio-One, 781101) using an Echo 550 acoustic dispenser (Labcyte). Using an automatic liquid dispenser, 50 μL reaction mixes were prepared by adding 25 μL of substrate mix into all wells followed by the addition of 25 μL enzyme mix into compounds and no inhibition control wells (final reaction: 100 mM HEPES, pH 7.4, 20 mM MgCl2, 1 mM DTT, 500 μM ATP, 1.2 mM L-Lysine, 300 nM CpKRS and 0.5 U/mL Pyrophosphatase). Complete inhibition control reactions were performed in the absence of enzyme and the plates were incubated at room temperature for 8 h. Reactions were stopped by the addition of Biomol green (50 μL: Enzo Life Sciences) with the amount of free phosphate detected by measuring absorbance (650 nm) after 20 min further incubation (BMG Pherastar plate reader). Counter screen assays to eliminate direct inhibition of pyrophosphatase were performed using 0.5 U/mL pyrophosphatase and 3 μM pyrophosphate as substrate in the same assay buffer (100 mM HEPES, pH 7.4, 20 mM MgCl2, 1 mM DTT) for 8 hours at room temperature. Biomol green was added and incubated for 20 min before detection as above. Samples were run in duplicate and data was processed and analysed using ActivityBase (IDBS).

Cryptosporidium parvum = assay: In vitro inhibition of Cryptosporidium (method of Bessoff et al.); type: cell-based; settings: read-out: C. parvum PEC50 (converted)
Text: Assay Method for Measurement of In Vitro Inhibition of Cryptosporidium
These experiments were run in accordance with the method of Besssoff et. al. Antimicrob. Agents Chemother. 2013, 57:1804-1814. Results from these experiments are provided in the Experimental Results hereinafter.

[2] = test system: Hep G2 (Human hepatocyte carcinoma); assay: In vitro inhibition of HepG2 cells (cytotoxicity); type: cell-based; settings: read-out: Hs HepG2 PEC50 (converted)
Text: Assay Method for Measurement of In Vitro Inhibition of HepG2 Cells (Cytotoxicity)
These experiments were run in accordance with the method of Mersch-Sundermann V et. al. Toxicology 2004, 198:329-340

C. parvum Iowa strain = assay: Cryptosporidiosis NOD SCID gamma mouse model, fecal oocyst shedding by quantitative PCR; type: in vivo, Cryptosporidium parvum; settings: NOD SCID gamma mice, average reduction in oocyst shedding compared to untreated vehicle
Text: The in vivo measurement of the potential efficacy of compounds of formula (I) in a cryptosporidium mouse model has been carried out following the method described in Antimicrob. Agents Ch., 2018, 62, 4, e01505-17, and which is summarised below. The cryptosporidiosis NOD SCID gamma mouse model was run as follows: Male NOD SCID gamma mice (NOD.Cg-Prkdc^scid II2rg^tm1Wjt/SzJ, Jackson Labs) were infected approximately 2 weeks post weaning with 10^5 C. parvum Iowa strain oocysts by oral gavage. Four mice were used per experimental group. This establishes a chronic, asymptomatic infection of the small intestine, cecum, and biliary tree. Fecal parasite shedding is monitored by quantitative PCR to amplify C. parvum DNA. One week after infection (which is the timing with which shedding becomes uniformly detected), compounds are dosed by oral gavage. Treatment continued for seven days total. The number of oocysts per milligram of stool was measured for each mouse on day 8 (1 day after completion of the last dose) and day 15 […] (7 days after the completion of the last dose). Average oocyst concentrations were calculated for each group of mice. Log reduction is the average reduction in oocyst shedding compared to untreated vehicle. These experiments were run in accordance with the method of C. D. Huston et al, Antimicrob. Agents Ch., 2018, 62, 4, e01505-17.

Cryptosporidium parvum lysyl t-RNA synthetase (Cp KRS), sequence (Q5CR27 entry or part of it): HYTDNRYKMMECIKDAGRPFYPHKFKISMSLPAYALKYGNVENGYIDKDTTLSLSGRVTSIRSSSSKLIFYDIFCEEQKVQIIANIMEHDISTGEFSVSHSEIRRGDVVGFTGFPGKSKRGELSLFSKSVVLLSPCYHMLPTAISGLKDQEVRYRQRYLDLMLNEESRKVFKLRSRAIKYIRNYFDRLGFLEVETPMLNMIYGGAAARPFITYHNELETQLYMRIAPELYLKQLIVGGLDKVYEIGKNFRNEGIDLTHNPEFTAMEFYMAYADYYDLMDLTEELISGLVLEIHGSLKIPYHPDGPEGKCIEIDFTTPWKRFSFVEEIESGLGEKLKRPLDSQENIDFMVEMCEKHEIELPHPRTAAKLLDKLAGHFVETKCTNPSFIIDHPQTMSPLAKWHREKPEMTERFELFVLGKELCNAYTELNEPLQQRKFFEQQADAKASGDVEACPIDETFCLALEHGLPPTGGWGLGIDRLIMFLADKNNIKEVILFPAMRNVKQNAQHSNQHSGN

SMILES | IC50 [1] [µM] | EC50 (Cryptosporidium parvum) [µM] | EC50 [2] [µM] | Log Reduction (day 8) (C. parvum Iowa strain; 10 mg/kg P.O. B.I.D. 7 days) | Log Reduction (day 15) (C. parvum Iowa strain; 10 mg/kg P.O. B.I.D. 7 days) | Log Reduction (day 8) (C. parvum Iowa strain; 50 mg/kg P.O. B.I.D. 7 days) | Log Reduction (day 15) (C. parvum Iowa strain; 50 mg/kg P.O. B.I.D. 7 days) | Log Reduction (day 8) (C. parvum Iowa strain; 20 mg/kg P.O. B.I.D. 7 days) | Log Reduction (day 15) (C. parvum Iowa strain; 20 mg/kg P.O. B.I.D. 7 days) | Log Reduction (day 8) (C. parvum Iowa strain; 30 mg/kg P.O. B.I.D. 7 days) | Log Reduction (day 15) (C. parvum Iowa strain; 30 mg/kg P.O. B.I.D. 7 days) | Log Reduction (day 8) (C. parvum Iowa strain; 40 mg/kg P.O. B.I.D. 7 days) | Log Reduction (day 15) (C. parvum Iowa strain; 40 mg/kg P.O. B.I.D. 7 days)
Nc1nc2c(c(C(F)(F)F)n1)C(=O)N(CC1CCCC3(CC3)C1)C2 (racemic) [Compound 4, 2-amino-6-(spiro[2.5]octan-5-ylmethyl)-4-(trifluoromethyl)-6,7-dihydro-5H-pyrrolo[3,4-d]pyrimidin-5-one] | 2.51 | 0.158 | 20 | 1.3 | 1.0 | 3.4 | 2.5 | – | – | – | – | – | –
Nc1nc2c(c(C(F)(F)F)n1)C(=O)N(C[C@@H]1CCC[C@H](C(F)(F)F)C1)C2 [Compound 1, 2-amino-4-(trifluoromethyl)-6-(((1R,3S)-3-(trifluoromethyl)cyclohexyl)methyl)-6,7-dihydro-5H-pyrrolo[3,4-d]pyrimidin-5-one] | 0.794 | 0.0316 | 25.1 | 3.0 | 1.0 | 3.4 | 3.5 | 3.1 | 0.7 | 2.9 | 2.2 | 2.6 | 2.9
Cc1nc(N)nc2c1C(=O)N(C[C@@H]1CCC[C@H](C(F)(F)F)C1)C2 [Compound 2, 2-amino-4-methyl-6-(((1R,3S)-3-(trifluoromethyl)cyclohexyl)methyl)-6,7-dihydro-5H-pyrrolo[3,4-d]pyrimidin-5-one] | 0.794 | 0.02 | 12.6 | 1.8 | 0.8 | – | – | – | – | 2.7 | 2.4 | – | –
Nc1nc2c(c(C(F)F)n1)C(=O)N(C[C@@H]1CCC[C@H](C(F)(F)F)C1)C2 [Compound 3, 2-amino-4-(difluoromethyl)-6-(((1R,3S)-3-(trifluoromethyl)cyclohexyl)methyl)-6,7-dihydro-5H-pyrrolo[3,4-d]pyrimidin-5-one] | 1 | 0.0251 | 25.1 | 2.4 | 1.0 | – | – | – | – | 2.8 | 1.6 | – | –
